29 compounds from patent publication US8338441B2, “Inhibitors of human immunodeficiency virus replication” (priority 2009, dated 2012) can be followed below.

This experiment deals with HIV-1 NL4.3 strain. As to the kind of experiment: C8166 HIV-1 Luciferase Assay (EC50). It counts as cell-based. To be noted: Human immunodeficiency virus 1, C8166, 72 h, read-out: Antiviral potency EC50. An excerpt: C8166 HIV-1 Luciferase Assay (EC50)
C8166 cells are derived from a human T-lymphotrophic virus type 1 immortalized but nonexpressing line of cord blood lymphocytes (obtained from J. Sullivan and originally produced in the laboratory of R. Gallo, Virology 1983; 129: 51-64) and are highly permissive to HIV-1 infection. The pGL3 Basic LTR/TAR plasmid is made by introducing the HIV-1 HxB2 LTR sequence from nucleotide −138 to +80 (Sca1-HindIII) upstream of the luciferase gene in the pGL3 Basic Vector (a promoterless luciferase expression vector from Promega catalogue # E1751) with the gene for blasticidine resistance cloned in. The reporter cells are made by electroporating C8166 cells with pGL3 Basic LTR/TAR and selecting positive clones with blasticidine. Clone C8166-LTRIuc #A8-F5-G7 is selected by 3 consecutive rounds of limiting dilution under blasticidine selection. Cultures are maintained in complete media (consisting of: Roswell Park Memorial Institute medium (RPMI) 1640+10% FBS+10^−5 M β-mercaptoethanol+10 μg/ml gentamycin) with 5 μg/ml blasticidine, however, blasticidine selection is removed from the cells before performing the viral replication assay.
Luciferase Assay Protocol
Serial dilutions of HIV-1 inhibitor compounds are prepared in complete media from 10 mM DMSO stock solutions. Eleven serial dilutions of 2.5× are made at 8× desired final concentration in a 1 mL deep well titer plate (96 wells). The 12th well contains complete media with no inhibitor and serves as the positive control. All samples contain the same concentration of DMSO (≦0.1% DMSO). A 25 μL aliquot of inhibitor is added, to triplicate wells, of a 96 well tissue culture treated clear view black microtiter plate (Corning Costar catalogue # 3904). The total volume per well is 200 μL of media containing cells and inhibitor. The last row is reserved for uninfected C8166 LTRluc cells to serve as the background blank control and the first row is media alone.
C8166 LTRluc cells are counted and placed in a minimal volume of complete RPMI 1640 in a tissue culture flask (ex. 30×10^6 cells in 10 mL media/25 cm^2 flask). Cells are infected with HIV-1 or virus with variant integrase generated as described below at a […] (moi) of 0.005. Cells are incubated for 1.5 hours at 37° C. on a rotating rack in a 5% CO2 incubator and re-suspended in complete RPMI to give a final concentration of 25,000-cells/175 μL. 175 μL of cell mix is added to wells of a 96 well microtiter plate containing 25 μL 8× inhibitors. 25,000 uninfected C8166-LTRluc cells/well in 200 μL complete RPMI are added to the last row for background control. Cells are incubated at 37° C. in 5% CO2 incubator for 3 days.
50 μL Steady Glo (luciferase substrate T1/2=5 hours Promega catalogue # E2520) is added to each well of the 96 well plate. The relative light units (RLU) of luciferase is determined using the LUMIstar Galaxy luminometer (BMG LabTechnologies). Plates are read from the bottom for 2 seconds per well with a gain of 240.
The level of inhibition (% inhibition) of each well containing inhibitor is calculated as follows: […]
The calculated % inhibition values are used to determine EC50, slope factor (n) and maximum inhibition (Imax) by the non-linear regression routine NLIN procedure of SAS using the following equation: […]
As to `Cc1nc(-c2nc3cc(Cl)ccc3[nH]2)c(C)c(-c2ccccc2Cl)c1[C@H](OC(C)(C)C)C(=O)O` [compound 1446], the EC50 was 1.9 nM.

On to `Cc1nc(-c2nc3ccc(Cl)cc3[nH]2)c(C)c(-c2ccc(Br)cc2)c1[C@H](OC(C)(C)C)C(=O)O` [compound 1447], for which the EC50 came to 0.38 nM. Next, `Cc1nc(-c2nc3ccccc3n2C)c(C)c(-c2ccc(Br)cc2)c1[C@H](OC(C)(C)C)C(=O)O` [compound 1448]: 1.4 nM. Next, `Cc1nc(-c2nc3ccccc3n2CC2CC2)c(C)c(-c2ccc(Cl)cc2)c1[C@H](OC(C)(C)C)C(=O)O` [compound 1449]: 1.8 nM. In the case of `Cc1nc(-c2nc3ccccc3n2C2CC2)c(C)c(-c2ccc(Cl)cc2)c1[C@H](OC(C)(C)C)C(=O)O` [compound 1450] it was 7.7 nM; in that of `Cc1nc(C(=O)NC2CCC(C)(C)CC2)c(C)c(-c2ccc(Cl)cc2F)c1[C@H](OC(C)(C)C)C(=O)O` [compound 1451], 1.7 nM. Turning to `Cc1nc(C(=O)NC2CCC3(CC2)CC3)c(C)c(-c2ccc(Cl)cc2F)c1[C@H](OC(C)(C)C)C(=O)O` [compound 1452], the EC50 amounted to 5.7 nM. In the case of `COc1cc(C(=O)Nc2nc(C)c([C@H](OC(C)(C)C)C(=O)O)c(-c3ccc(Cl)cc3F)c2C)nc2ccccc12` [compound 1453] it was 2.1 nM. Next, `Cc1nc(C(=O)N[C@H]2CC[C@H](C)CC2)c(C)c(-c2cccc(F)c2Cl)c1[C@H](OC(C)(C)C)C(=O)O` [compound 1454]: 3.7 nM; `Cc1nc(C(=O)N[C@H]2CC[C@H](C)CC2)c(C)c(-c2ccccc2Cl)c1[C@H](OC(C)(C)C)C(=O)O` [compound 1455]: 4 nM. In the case of `Cc1nc(C(=O)N[C@H]2CC[C@H](C)CC2)c(C)c(-c2ccc(Br)cc2)c1[C@H](OC(C)(C)C)C(=O)O` [compound 1456], the EC50 came out at 4.2 nM. Consider `Cc1nc(C(=O)NC2CCC(C)(C)CC2)c(C)c(-c2ccc(Br)cc2)c1[C@H](OC(C)(C)C)C(=O)O` [compound 1457], for which the EC50 was 4 nM. As for `Cc1nc(C(=O)NC2CCC3(CC2)CC3)c(C)c(-c2ccc(Br)cc2)c1[C@H](OC(C)(C)C)C(=O)O` [compound 1458], the EC50 was determined as 6.9 nM. In the case of `Cc1nc(C(=O)N[C@H]2CC[C@H](C)CC2)c(C)c(-c2ccc3c(c2)SCCO3)c1[C@H](OC(C)(C)C)C(=O)O` [compound 1459], the 50% effective concentration (EC50) turned out to be 4 nM. In the case of `COc1cc(C(=O)Nc2nc(C)c([C@H](OC(C)(C)C)C(=O)O)c(-c3ccc(Cl)cc3)c2C)nc2ccccc12` [compound 1461] it was 2.5 nM; in that of `COc1cc(Cl)ccc1C(=O)Nc1nc(C)c([C@H](OC(C)(C)C)C(=O)O)c(-c2ccc(Cl)cc2)c1C` [compound 1462], 1.2 nM.

As to `Cc1nc(NC(=O)c2oc3ccccc3c2C)c(C)c(-c2ccc(Cl)cc2)c1[C@H](OC(C)(C)C)C(=O)O` [compound 1463], the EC50 came out at 2.1 nM. In the case of `Cc1nc(NC(=O)[C@H]2CC[C@H](C)CC2)c(C)c(-c2ccc(Cl)cc2)c1[C@H](OC(C)(C)C)C(=O)O` [compound 1464] it was 6.2 nM; in that of `Cc1ccc(C(F)(F)F)c(C(=O)Nc2nc(C)c([C@H](OC(C)(C)C)C(=O)O)c(-c3ccc(Cl)cc3)c2C)c1` [compound 1465], 11 nM. In the case of `Cc1nc(NC(=O)c2ccc(Cl)c(F)c2)c(C)c(-c2ccc(Cl)cc2)c1[C@H](OC(C)(C)C)C(=O)O` [compound 1466] it was 4.9 nM; in that of `COc1nc(C)ccc1C(=O)Nc1nc(C)c([C@H](OC(C)(C)C)C(=O)O)c(-c2ccc(Cl)cc2)c1C` [compound 1467], 4.3 nM. In the case of `Cc1nc(-c2nc3ccc(Cl)cn3c2C)c(C)c(-c2ccc(Cl)cc2)c1[C@H](OC(C)(C)C)C(=O)O` [compound 1469] it was 0.61 nM; in that of `Cc1nc(C(=O)N2Cc3ccccc3C2)c(C)c(-c2ccc(Cl)cc2)c1[C@H](OC(C)(C)C)C(=O)O` [compound 1471], 2.4 nM; in that of `COCc1nc(-c2ccc(C)c(C)c2)c(C)c(-c2ccc(Cl)cc2)c1[C@H](OC(C)(C)C)C(=O)O` [compound 2003], 17 nM. Take `Cc1noc(C)c1-c1ccc(-c2nc(C)c([C@H](OC(C)(C)C)C(=O)O)c(-c3ccc(Cl)cc3)c2C#N)cc1` [compound 2005]: the EC50 was determined as 19 nM. As to `CCC(C)(C)O[C@H](C(=O)O)c1c(C)nc(C(=O)N[C@H]2CC[C@H](C)CC2)c(C)c1-c1ccc(Cl)cc1` [compound 3005], the EC50 was 9.3 nM.

With `Cc1nc(C(=O)N[C@H]2CC[C@H](C)CC2)c(C)c(-c2ccc(Cl)cc2)c1[C@H](OC1(C)CCC1)C(=O)O` [compound 3009], the EC50 came out at 24 nM.

As to `Cc1c(-c2ccc3c(c2)CCCO3)c([C@H](OC(C)(C)C)C(=O)O)c(C)n2cc(CC(C)(C)C)nc12` [compound 4002], the EC50 was found to be 73 nM. In the case of `COC(=O)c1cnn2c(C)c([C@H](OC(C)(C)C)C(=O)O)c(-c3ccc4c(c3)CCCO4)c(C)c12` [compound 6001], the EC50 was 89 nM.
